Counter-ions that a name gives are not always drawn.
How the values were obtained:
Details in all cases: for A^i (absorbance): 492 nm
[1] = tested on: influenza virus USSR/90/77; assay: Fetuin binding inhibition assay, influenza virus USSR/90/77
[2] = tested on: influenza virus Chile/1/83; assay: Fetuin binding inhibition assay, influenza virus Chile/1/83
[3] = tested on: influenza virus Taiwan/1/86; assay: Fetuin binding inhibition assay, influenza virus Taiwan/1/86
influenza virus X-31 = assay: Fetuin binding inhibition assay, influenza virus X-31
[4] = tested on: influenza virus England/321/77; assay: Fetuin binding inhibition assay, influenza virus England/321/77
[5] = tested on: influenza virus USSR/2/85; assay: Fetuin binding inhibition assay, influenza virus USSR/2/85
[6] = tested on: influenza virus USSR/3/85; assay: Fetuin binding inhibition assay, influenza virus USSR/3/85

CC(=S)NC1C(O)CC(OCc2ccccc2)(C(=O)O)OC1C(O)C(O)CO [IV, benzyl 3,5-dideoxy5-thioacetamido-α-D-glycero-D-galacto-nonulopyranosidonicacid (sodium salt)]
-lgKd(i) ([1]; 1.28 mM sialoside): 3.2
A^i (absorbance) ([1]; 1.28 mM sialoside): 0.41
-lgKd(i) ([1]; 2.56 mM sialoside): 3.2
A^i (absorbance) ([1]; 2.56 mM sialoside): 0.23
-lgKd(i) ([1]; .08 mM sialoside): 3.1
A^i (absorbance) ([1]; .08 mM sialoside): 0.94
-lgKd(i) ([1]; .16 mM sialoside): 3.2
A^i (absorbance) ([1]; .16 mM sialoside): 0.84
-lgKd(i) ([1]; .32 mM sialoside): 3.2
A^i (absorbance) ([1]; .32 mM sialoside): 0.73
-lgKd(i) ([1]; .64 mM sialoside): 3.2
A^i (absorbance) ([1]; .64 mM sialoside): 0.6
-lgKd ± SD ([1]; mean over concentrations): 3.1 ± 0.09
-lgKd(i) ([2]; 1.28 mM sialoside): 3.6
A^i (absorbance) ([2]; 1.28 mM sialoside): 0.36
-lgKd(i) ([2]; 2.56 mM sialoside): 3.5
A^i (absorbance) ([2]; 2.56 mM sialoside): 0.25
-lgKd(i) ([2]; .08 mM sialoside): 3.5
A^i (absorbance) ([2]; .08 mM sialoside): 1.27
-lgKd(i) ([2]; .16 mM sialoside): 3.5
A^i (absorbance) ([2]; .16 mM sialoside): 1.14
-lgKd(i) ([2]; .32 mM sialoside): 3.5
A^i (absorbance) ([2]; .32 mM sialoside): 0.89
-lgKd(i) ([2]; .64 mM sialoside): 3.5
A^i (absorbance) ([2]; .64 mM sialoside): 0.63
-lgKd ± SD ([2]; mean over concentrations): 3.5 ± 0.04
-lgKd(i) ([3]; 1.28 mM sialoside): 3.2
A^i (absorbance) ([3]; 1.28 mM sialoside): 0.33
-lgKd(i) ([3]; 2.56 mM sialoside): 3.2
A^i (absorbance) ([3]; 2.56 mM sialoside): 0.21
-lgKd(i) ([3]; .08 mM sialoside): 3.3
A^i (absorbance) ([3]; .08 mM sialoside): 0.68
-lgKd(i) ([3]; .16 mM sialoside): 3.3
A^i (absorbance) ([3]; .16 mM sialoside): 0.62
-lgKd(i) ([3]; .32 mM sialoside): 3.2
A^i (absorbance) ([3]; .32 mM sialoside): 0.55
-lgKd(i) ([3]; .64 mM sialoside): 3.1
A^i (absorbance) ([3]; .64 mM sialoside): 0.47
-lgKd ± SD ([3]; mean over concentrations): 3.2 ± 0.08
-lgKd(i) (influenza virus X-31; 1.28 mM sialoside): 3.3
A^i (absorbance) (influenza virus X-31; 1.28 mM sialoside): 0.34
-lgKd(i) (influenza virus X-31; 2.56 mM sialoside): 3.2
A^i (absorbance) (influenza virus X-31; 2.56 mM sialoside): 0.24
-lgKd(i) (influenza virus X-31; .08 mM sialoside): 3.2
A^i (absorbance) (influenza virus X-31; .08 mM sialoside): 0.86
-lgKd(i) (influenza virus X-31; .16 mM sialoside): 3.4
A^i (absorbance) (influenza virus X-31; .16 mM sialoside): 0.72
-lgKd(i) (influenza virus X-31; .32 mM sialoside): 3.3
A^i (absorbance) (influenza virus X-31; .32 mM sialoside): 0.65
-lgKd(i) (influenza virus X-31; .64 mM sialoside): 3.3
A^i (absorbance) (influenza virus X-31; .64 mM sialoside): 0.51
-lgKd ± SD (influenza virus X-31; mean over concentrations): 3.3 ± 0.08
-lgKd(i) ([4]; 1.28 mM sialoside): 3.7
A^i (absorbance) ([4]; 1.28 mM sialoside): 0.21
-lgKd(i) ([4]; 2.56 mM sialoside): 3.5
A^i (absorbance) ([4]; 2.56 mM sialoside): 0.16
-lgKd(i) ([4]; .08 mM sialoside): 3.4
A^i (absorbance) ([4]; .08 mM sialoside): 0.98
-lgKd(i) ([4]; .16 mM sialoside): 3.7
A^i (absorbance) ([4]; .16 mM sialoside): 0.73
-lgKd(i) ([4]; .32 mM sialoside): 3.7
A^i (absorbance) ([4]; .32 mM sialoside): 0.56
-lgKd(i) ([4]; .64 mM sialoside): 3.7
A^i (absorbance) ([4]; .64 mM sialoside): 0.37
-lgKd ± SD ([4]; mean over concentrations): 3.6 ± 0.13
-lgKd(i) ([5]; 1.28 mM sialoside): 2.6
A^i (absorbance) ([5]; 1.28 mM sialoside): 0.23
-lgKd(i) ([5]; 2.56 mM sialoside): 2.5
A^i (absorbance) ([5]; 2.56 mM sialoside): 0.21
-lgKd(i) ([5]; .64 mM sialoside): 2.6
A^i (absorbance) ([5]; .64 mM sialoside): 0.28
-lgKd ± SD ([5]; mean over concentrations): 2.6 ± 0.06
-lgKd(i) ([6]; 1.28 mM sialoside): 3.6
A^i (absorbance) ([6]; 1.28 mM sialoside): 0.32
-lgKd(i) ([6]; 2.56 mM sialoside): 3.8
A^i (absorbance) ([6]; 2.56 mM sialoside): 0.12
-lgKd(i) ([6]; .08 mM sialoside): 3.8
A^i (absorbance) ([6]; .08 mM sialoside): 1.05
-lgKd(i) ([6]; .16 mM sialoside): 3.8
A^i (absorbance) ([6]; .16 mM sialoside): 0.81
-lgKd(i) ([6]; .32 mM sialoside): 3.8
A^i (absorbance) ([6]; .32 mM sialoside): 0.62
-lgKd(i) ([6]; .64 mM sialoside): 3.7
